Legend:
[1] = target: T1, truncated His-MBP-Tev-KLHDC2 (residues 1-363) (Homo sapiens, UniProt Q9Y2U9); experiment: KLHDC2 HTRF binding assay; details: 1 nM KLHDC2 (residues 1-363), fluorescein-labeled diglycine peptide probe
T1 construct: truncated His -MBP-Tev-KLHDC2 (residues 1-363) purified from E. coli; made in house; host or cells: E. coli
T1 sequence (Q9Y2U9 1-363): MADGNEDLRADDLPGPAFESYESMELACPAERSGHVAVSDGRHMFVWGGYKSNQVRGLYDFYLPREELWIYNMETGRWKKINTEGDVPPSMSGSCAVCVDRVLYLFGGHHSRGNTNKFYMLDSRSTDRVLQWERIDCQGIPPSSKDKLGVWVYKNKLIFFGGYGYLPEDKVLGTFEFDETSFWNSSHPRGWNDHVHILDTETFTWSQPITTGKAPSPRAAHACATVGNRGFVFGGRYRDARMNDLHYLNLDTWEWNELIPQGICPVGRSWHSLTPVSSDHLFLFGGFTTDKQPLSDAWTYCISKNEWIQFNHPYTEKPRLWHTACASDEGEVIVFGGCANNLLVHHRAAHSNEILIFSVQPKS

[2] = target: T1, truncated His-MBP-Tev-KLHDC2 (residues 1-363); experiment: KLHDC2 FP competition binding assay; details: 15 nM KLHDC2 (residues 1-363), 10 nM fluorescein-labeled diglycine peptide probe, read-out: KLHDC2 binding Human FP: average external IC50

Structure (SMILES) | IC50 [1] [µM] | IC50 [2] [µM]
O=C(O)C1CC(=O)N(CCOc2ccccc2Cl)C1 (stereo not drawn) [I-228] | > 5 | > 5
O=C(O)CCN1C(=O)CCc2ccccc21 [I-229] | > 5 | > 5
O=C(O)C1CC(=O)N(Cc2ccccn2)C1 (stereo not drawn) [I-230] | > 5 | > 5
O=C(O)CC1NC(=O)c2ccccc21 (stereo not drawn) [I-231] | > 5 | > 5
CC(C(=O)O)N1CCCCC1=O (stereo not drawn) [I-232] | > 5 | > 5
Cn1ccc(N2CC(C(=O)O)CC2=O)n1 (stereo not drawn) [I-233] | > 5 | > 5
O=C(O)Cn1cc(NC(=O)CC2Cc3ccc(Cl)cc3C2=O)ccc1=O (stereo not drawn) [I-235] | > 5 | > 5
O=C(O)Cn1cc(NC(=O)C2(S(=O)(=O)c3ccc(Cl)cc3)CCCC2)ccc1=O [I-236] | > 5 | > 5
O=C(O)Cn1cc(NC(=O)c2cccc(C3CCC3)c2)ccc1=O [I-240] | > 5 | > 5
CCCCC(=O)Nc1cncc(C(=O)Nc2ccc(=O)n(CC(=O)O)c2)c1 [I-241] | > 5 | > 5
COc1ccc(-c2ccccc2)cc1C(=O)Nc1ccc(=O)n(CC(=O)O)c1 [I-243] | > 5 | > 5
O=C(O)Cn1cc(NC(=O)COc2ccc(Oc3ccccc3)cc2)ccc1=O [I-244] | > 5 | > 5
O=C(O)Cn1cc(NC(=O)C2CCCc3cc(O)ccc32)ccc1=O (stereo not drawn) [I-245] | > 5 | > 5
Cc1nn(-c2ccc(F)cc2F)c(C)c1CC(=O)Nc1ccc(=O)n(CC(=O)O)c1 [I-246] | > 5 | > 5
O=C(O)Cn1cc(NC(=O)COc2cccnc2)ccc1=O [I-250] | > 5 | > 5
O=C(O)Cn1cc(NC(=O)COc2cccc3cnccc23)ccc1=O [I-251] | > 5 | > 5
O=C(O)Cn1cc(NC(=O)COc2cccc(C(F)(F)F)c2)ccc1=O [I-252] | > 5 | > 5
CCc1ccc(C(=O)CCC(=O)Nc2ccc(=O)n(CC(=O)O)c2)cc1 [I-253] | > 5 | > 5
Cc1onc(-c2ccc(F)cc2)c1C(=O)Nc1ccc(=O)n(CC(=O)O)c1 [I-254] | > 5 | > 5

Structure (SMILES) | IC50 [1] [µM] | IC50 [2] [µM]
O=C(O)Cn1cc(NC(=O)c2ccc(-c3ccccc3Cl)o2)ccc1=O [I-255] | > 5 | > 5
O=C(O)Cn1cc(NC(=O)COc2ccc(C(F)(F)F)cc2)ccc1=O [I-256] | > 5 | > 5
O=C(O)Cn1cc(NC(=O)COc2cc(Cl)cc(Cl)c2)ccc1=O [I-257] | > 5 | > 5
N#Cc1cccc(OCC(=O)Nc2ccc(=O)n(CC(=O)O)c2)c1 [I-258] | > 5 | > 5
O=C(O)Cn1cc(NC(=O)c2ccnc(-c3ccccc3)c2)ccc1=O [I-260] | > 5 | > 5
COc1cccc(OCC(=O)Nc2ccc(=O)n(CC(=O)O)c2)c1 [I-261] | > 5 | > 5
COc1cc(C(=O)Nc2ccc(=O)n(CC(=O)O)c2)cc(-c2ccccc2)c1 [I-262] | > 5 | > 5
O=C(O)Cn1cc(NC(=O)COc2cccc3ncccc23)ccc1=O [I-263] | > 5 | > 5
O=C(O)Cn1cc(NC(=O)COc2ccccn2)ccc1=O [I-264] | > 5 | > 5
O=C(O)Cn1cc(NC(=O)COc2cccc(Cl)c2)ccc1=O [I-265] | > 5 | > 5
Cc1ccccc1OCC(=O)Nc1ccc(=O)n(CC(=O)O)c1 [I-266] | > 5 | > 5
O=C(O)Cn1cc(NC(=O)c2cc(-c3ccccc3)ccn2)ccc1=O [I-267] | > 5 | > 5
O=C(O)Cn1cc(NC(=O)c2cccc(Br)c2)ccc1=O [I-268] | > 5 | > 5
N#Cc1ccc(OCC(=O)Nc2ccc(=O)n(CC(=O)O)c2)cc1 [I-270] | > 5 | > 5
O=C(O)CN1CC(NC(=O)c2ccccc2)CCC1=O (stereo not drawn) [I-271] | > 5 | > 5
CN(C(=O)Cc1ccc(=O)n(CC(=O)O)c1)c1ccccc1 [I-272] | > 5 | > 5
COc1ccccc1OCC(=O)Nc1ccc(=O)n(CC(=O)O)c1 [I-273] | > 5 | > 5
O=C(O)Cn1cc(NC(=O)c2cccc(-c3ccccc3)n2)ccc1=O [I-274] | > 5 | > 5

More lines, now with the values ahead:

IC50 [1] [µM] | IC50 [2] [µM] | Structure (SMILES)
> 5 | > 5 | O=C(O)Cn1cc(NC(=O)c2cccc(-c3ccc(C(F)(F)F)cc3)c2)ccc1=O [I-199]
> 5 | > 5 | O=C(O)Cn1cc(NC(=O)c2cccc(-c3cccc(C(F)(F)F)c3)c2)ccc1=O [I-200, 2-(2-oxo-5-(3′-(trifluoromethyl)-[1,1′-biphenyl]-3-carboxamido)pyridin-1 (2H)-yl) acetic acid]
0.5 to 5 | 0.5 to 5 | O=C(O)Cn1cc(NC(=O)c2cccc(-c3cncnc3)c2)ccc1=O [I-201]
0.05 to 0.5 | 0.5 to 5 | Cc1ccc(C(=O)Nc2ccc(=O)n(CC(=O)O)c2)cc1-c1cccnc1 [I-202]
0.5 to 5 | 0.5 to 5 | COc1cc(-c2ccccc2)ccc1C(=O)Nc1ccc(=O)n(CC(=O)O)c1 [I-203]
0.5 to 5 | > 5 | COc1cc(-c2cccnc2)ccc1C(=O)Nc1ccc(=O)n(CC(=O)O)c1 [I-204]
> 5 | > 5 | O=C(O)Cn1cc(NC(=O)c2ccc(-c3cccnc3)s2)ccc1=O [I-205]
> 5 | > 5 | O=C(O)CN1CC(NC(=O)c2cccc(-c3ccccc3)c2)CCC1=O (stereo not drawn) [I-206]
> 5 | > 5 | CSCCC(NC(=O)c1ccccc1C)C(=O)Nc1ccc(=O)n(CC(=O)O)c1 (stereo not drawn) [I-208]
> 5 | > 5 | O=C(O)Cn1cc(NC(=O)c2cccc(-c3ccccn3)c2)ccc1=O [I-209]
> 5 | > 5 | COc1ccc(/C=C/CC(=O)Nc2ccc(=O)n(CC(=O)O)c2)cc1 [I-210]
0.5 to 5 | > 5 | O=C(O)Cn1cc(NC(=O)c2ccc3ccccc3c2)ccc1=O [I-211]
0.5 to 5 | > 5 | O=C(O)Cn1cc(NC(=O)c2ccc(-c3ccccc3)cc2)ccc1=O [I-212]
> 5 | > 5 | O=C(O)C1CC(=O)N(C2CCSc3ccccc32)C1 (stereo not drawn) [I-213]
> 5 | > 5 | O=C(O)Cn1c(=O)oc2cc([N+](=O)[O-])ccc21 [I-214]
> 5 | > 5 | O=C(O)C1CCOc2ccc(Cl)cc21 (stereo not drawn) [I-215]
> 5 | > 5 | O=C(O)C1CC(=O)N(C2CC2)C1 (stereo not drawn) [I-216]
> 5 | > 5 | CCN1C(=O)CCC(C(=O)O)C1c1cnn(C)c1 (stereo not drawn) [I-217]
> 5 | > 5 | COc1cccc(C2C(C(=O)O)CC(=O)N2C2CC2)c1 (stereo not drawn) [I-218]

IC50 [1] [µM] | IC50 [2] [µM] | Structure (SMILES)
> 5 | > 5 | CC(NC(=O)CCC(=O)O)C(=O)c1ccccc1 (stereo not drawn) [I-219]
> 5 | > 5 | O=C(O)C1CC(=O)N(Cc2cccnc2)C1 (stereo not drawn) [I-220]
> 5 | > 5 | O=C(O)C1CC(=O)N(Cc2ccc(Cl)cc2)C1 (stereo not drawn) [I-221]
> 5 | > 5 | NC(=O)c1ccc(CN2C(=O)CCC2C(=O)O)cc1 (stereo not drawn) [I-222]
> 5 | > 5 | O=C(O)Cc1cnn2ccccc12 [I-223]
> 5 | > 5 | O=C(O)CN1C(=O)Cc2ccccc21 [I-224]
> 5 | > 5 | O=C(O)CCC(=O)NCc1nc2ccccc2s1 [I-225]
> 5 | > 5 | Cn1cc(N2CC(C(=O)O)CC2=O)cn1 (stereo not drawn) [I-226]
> 5 | > 5 | CS(=O)(=O)Nc1cccc(CC(=O)O)c1 [I-227]
0.5 to 5 | > 5 | CC1(C)CCc2c(C(=O)Nc3ccc(=O)n(CC(=O)O)c3)csc2C1 [I-234]
0.05 to 0.5 | 0.5 to 5 | CCN(CC)c1ccc2cc(C(=O)Nc3ccc(=O)n(CC(=O)O)c3)c(=O)oc2c1 [I-237]
0.05 to 0.5 | > 5 | CC(C)Cn1ccc2c(C(=O)Nc3ccc(=O)n(CC(=O)O)c3)cccc21 [I-238]
0.5 to 5 | > 5 | O=C(O)Cn1cc(NC(=O)CCCc2ccc(C3CC3)cc2)ccc1=O [I-239]
0.5 to 5 | > 5 | O=C(O)Cn1cc(NC(=O)c2occc2CN2C(=O)Cc3ccccc32)ccc1=O [I-242]
0.5 to 5 | > 5 | O=C(O)Cn1cc(NC(=O)c2nccc3c(Cl)cccc23)ccc1=O [I-248]
0.5 to 5 | > 5 | O=C(O)Cn1cc(NC(=O)c2ccc(-c3ccccc3)s2)ccc1=O [I-249]
0.5 to 5 | > 5 | COc1c(C(=O)Nc2ccc(=O)n(CC(=O)O)c2)cccc1-c1ccccc1 [I-259]
0.5 to 5 | > 5 | Cc1ccc(C(=O)Nc2ccc(=O)n(CC(=O)O)c2)cc1-c1ccccc1 [I-269]
0.5 to 5 | > 5 | Cc1ccc(-c2cccc(C(=O)Nc3ccc(=O)n(CC(=O)O)c3)c2)cc1 [I-275]
